Where a name gives a salt, the structure may show the parent alone. Read-outs that look alike come from different tables or passages of the source. Blank lines part the entries; values can stand above or below the compound they belong to.
What was measured:
VEGFR2 = VEGFR2 (Homo sapiens (Human), UniProt P35968); experiment: VEGFR2 in vitro kinase inhibitory activity assay (TRF, Flt3 substrate); assay type: biochemical
[1] = test system: parental wild-type Ba/F3 cells; experiment: Ba/F3 (WT) cell proliferation assay (Alamar Blue); assay type: cell-based; details: Mus musculus; for IC50: 72 hours, Alamar Blue, read-out: BaF3 WT prolif
Ba/F3-TEL-FGFR3 cells = experiment: Ba/F3-TEL-FGFR3 cell proliferation assay (Alamar Blue); assay type: cell-based; details: 72 hours, Alamar Blue; read-out: BaF3-TEL-FGFR3 prolif
[2] = test system: LP-1 cell line (FGF-1/Heparin induced pERK); experiment: Cell-based pERK ELISA, LP-1 cells; details: Homo sapiens; for IC50: LP-1, read-out: LP-1 pERK ELISA (μM)
[3] = BaF3, read-out: BaF3 WT prolif, % inhibition
[4] = BaF3, at 10 μM, read-out: BaF3 WT prolif, % inhibition

VEGFR2, sequence (P35968 20-1356): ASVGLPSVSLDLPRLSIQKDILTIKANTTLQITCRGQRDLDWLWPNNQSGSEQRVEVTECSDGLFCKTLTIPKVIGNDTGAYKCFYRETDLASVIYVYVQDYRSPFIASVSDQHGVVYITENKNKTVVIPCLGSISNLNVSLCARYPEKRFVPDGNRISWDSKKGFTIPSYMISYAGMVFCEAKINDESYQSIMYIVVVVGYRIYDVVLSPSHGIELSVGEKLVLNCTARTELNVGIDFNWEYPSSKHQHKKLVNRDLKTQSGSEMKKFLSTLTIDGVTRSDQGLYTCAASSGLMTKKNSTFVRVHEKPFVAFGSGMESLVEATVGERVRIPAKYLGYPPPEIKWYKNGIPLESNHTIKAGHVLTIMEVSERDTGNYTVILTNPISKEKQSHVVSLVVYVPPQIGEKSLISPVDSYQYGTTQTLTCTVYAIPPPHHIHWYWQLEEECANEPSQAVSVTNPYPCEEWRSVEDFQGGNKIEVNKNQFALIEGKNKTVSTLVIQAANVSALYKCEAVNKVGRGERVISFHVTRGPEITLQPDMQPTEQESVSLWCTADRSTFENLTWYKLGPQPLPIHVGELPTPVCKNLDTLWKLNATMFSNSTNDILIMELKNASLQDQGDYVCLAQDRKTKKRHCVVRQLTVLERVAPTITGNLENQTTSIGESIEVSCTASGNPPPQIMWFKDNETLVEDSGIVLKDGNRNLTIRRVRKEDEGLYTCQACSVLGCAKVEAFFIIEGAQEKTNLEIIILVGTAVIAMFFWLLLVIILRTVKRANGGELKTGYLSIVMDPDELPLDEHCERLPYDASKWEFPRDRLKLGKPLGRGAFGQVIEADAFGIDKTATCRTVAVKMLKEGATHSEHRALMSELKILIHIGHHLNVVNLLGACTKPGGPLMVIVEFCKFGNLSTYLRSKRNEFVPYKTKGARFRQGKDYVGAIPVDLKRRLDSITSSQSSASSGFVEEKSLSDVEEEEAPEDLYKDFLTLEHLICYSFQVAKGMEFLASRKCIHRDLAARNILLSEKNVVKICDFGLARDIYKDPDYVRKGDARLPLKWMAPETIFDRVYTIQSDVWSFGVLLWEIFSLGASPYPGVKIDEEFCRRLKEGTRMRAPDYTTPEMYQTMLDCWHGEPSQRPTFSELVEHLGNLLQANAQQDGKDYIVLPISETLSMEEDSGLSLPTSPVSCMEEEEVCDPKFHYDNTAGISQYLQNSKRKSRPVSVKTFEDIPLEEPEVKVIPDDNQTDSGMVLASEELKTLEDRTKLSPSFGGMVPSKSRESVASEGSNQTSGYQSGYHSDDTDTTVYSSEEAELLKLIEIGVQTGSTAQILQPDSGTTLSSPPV

Compound: COCCOc1cc(NC(=O)NCC(F)(F)F)cc(-c2cnc3cc(-c4ncc(F)c(N)n4)ccn23)c1 [Compound 285]
- inhibition at 3 µM (VEGFR2; 1 h, read-out: VEGFR2 % I): 51%
- inhibition at 1 µM [1, 3]: 12%
- inhibition at 10 µM [1, 3]: 10%

Compound: Cc1cc(NC(=O)NCC(F)(F)F)cc(-c2cnc3cc(-c4ccnc(C(F)(F)F)n4)ccn23)c1 [Compound 306]
- inhibition at 1 µM (VEGFR2; 1 h, read-out: VEGFR2 % I): 60%
- inhibition at 10 µM [1, 3]: 0%

- IC50 (Ba/F3-TEL-FGFR3 cells): 0.26 µM
- IC50 [2]: 0.096 µM
Compound: CNC(=O)C(C)(C)n1cc(-c2ccn3c(-c4cccc(NC(=O)NCC(F)(F)F)c4)cnc3c2)cn1 [Example 69, N-Methyl-2-[4-(3-{3-[3-(2,2,2-trifluoro-ethyl)-ureido]-phenyl}-imidazo[1,2-a]pyridin-7-yl)-pyrazol-1-yl]-isobutyramide]
- IC50 ([1]; BaF3): 4.6 µM

Compound: Cc1cc(NC(=O)NCC(F)(F)F)cc(-c2cnc3cc(-c4ncc(F)c(N)n4)ccn23)c1 [Compound 291]
- inhibition at 0.98 µM (VEGFR2; 1 h, at 0.98 μM, read-out: VEGFR2 % I): 57%
- inhibition at 1 µM [1, 3]: 24%

- inhibition at 3.1 µM (VEGFR2; 1 h, at 3.1 μM, read-out: VEGFR2 % I): 62%
Compound: CC(C)c1nccc(-c2ccn3c(-c4cccc(NC(=O)NCC(F)(F)F)c4)cnc3c2)n1 [Example 233]
- IC50 ([1]; BaF3): 0.0149 µM

- IC50 (Ba/F3-TEL-FGFR3 cells): 0.022 µM
- IC50 [2]: 0.0086 µM
Compound: CN1CCCC(n2cc(-c3ccn4c(-c5cccc(NC(=O)NCC(F)(F)F)c5)cnc4c3)cn2)C1 (centres unmarked) [Example 38, 1-(3-{7-[1-(1-Methylpiperidin-3-yl)-1H-pyrazol-4-yl]imidazo[1,2-a]pyridin-3-yl]phenyl)-3-(2,2,2-trifluoroethyl)urea hydrochloride]
- IC50 ([1]; BaF3): 0.44 µM

- inhibition at 1 µM (VEGFR2; 1 h, read-out: VEGFR2 % I): 49.5%
Compound: Cc1cc(C)nc(-c2ccn3c(-c4cccc(NC(=O)NCC(F)(F)F)c4)cnc3c2)n1 [Example 160]

- IC50 (Ba/F3-TEL-FGFR3 cells): 0.012 µM
- IC50 [2]: 0.014 µM
Compound: CC(C)N1CC(n2cc(-c3ccn4c(-c5cccc(NC(=O)NCC(F)(F)F)c5)cnc4c3)cn2)C1 [Example 32, 1-(3-{7-[1-(1-Isopropylazetidin-3-yl)-1H-pyrazol-4-yl]imidazo[1,2-a]pyridin-3-yl}phenyl)-3-(2,2,2-trifluoroethyl)-urea]
- IC50 ([1]; BaF3): 0.67 µM

Compound: CCNC(=O)Nc1cccc(-c2cnc3cc(-c4ccnc(C(F)(F)F)n4)ccn23)c1 [Example 239]
- inhibition at 1 µM (VEGFR2; 1 h, read-out: VEGFR2 % I): 49%
- inhibition at 3 µM [1, 3]: 26%

Compound: CC(=O)N1CC(n2cc(-c3ccn4c(-c5cccc(NC(=O)NCC(F)(F)F)c5)cnc4c3)cn2)C1 [Example 212]
- IC50 (VEGFR2): > 0.3 µM
- inhibition at 3 µM [1, 3]: 10%

Compound: O=C(NCC(F)(F)F)Nc1cccc(-c2cnc3cc(-c4nc(NC5CCC5)ncc4C(F)(F)F)ccn23)c1 [Example 191]
- IC50 (VEGFR2): > 30 µM
- inhibition at 1 µM [1, 3]: 18%

Compound: Cc1nc(-c2ccn3c(-c4cccc(NC(=O)NCC(F)(F)F)c4)cnc3c2)cc(C(F)(F)F)n1 [Example 238]
- inhibition at 0.31 µM (VEGFR2; 1 h, at 0.31 μM, read-out: VEGFR2 % I): 40%
- inhibition at 10 µM [1, 3]: 41%

Compound: CNc1nc(-c2ccn3c(-c4cccc(NC(=O)NCC(F)(F)F)c4)cnc3c2)ncc1F [Example 162]
- inhibition at 1 µM (VEGFR2; 1 h, read-out: VEGFR2 % I): 59%
- inhibition at 3 µM [1, 3]: 37%
- IC50 [2]: 0.091 µM

- IC50 (Ba/F3-TEL-FGFR3 cells): 1.5 µM
- IC50 [2]: 0.53 µM
Compound: CCN(CC)CCNC(=O)C(C)(C)n1cc(-c2ccn3c(-c4cccc(NC(=O)NCC(F)(F)F)c4)cnc3c2)cn1 [Example 68, N-(2-Diethylamino-ethyl)-2-[4-(3 {3-[3-(2,2,2-trifluoro-ethyl)-ureido]-phenyl}-imidazo[1,2-a]pyridin-7-yl)-pyrazol-1-yl]-isobutyramide]
- inhibition at 10 µM [1, 4]: 36%

- IC50 (Ba/F3-TEL-FGFR3 cells): 0.045 µM
- IC50 [2]: 0.022 µM
Compound: CCN1CCC(n2cc(-c3ccn4c(-c5cccc(NC(=O)NCC(F)(F)F)c5)cnc4c3)cn2)C1 (centres unmarked) [Example 44, 1-(3-{7-[1-(1-Ethyl-pyrrolidin-3-yl)-1H-pyrazol-4-yl)-imidazo[1,2-a]pyridin-3-yl}-phenyl)-3-(2,2,2-trifluoro-ethyl)-urea]
- IC50 ([1]; BaF3): 0.9 µM

Compound: Nc1ncc(C(F)(F)F)c(-c2ccn3c(-c4cccc(NC(=O)NCC(F)(F)F)c4)cnc3c2)n1 [Example 179]
- IC50 (VEGFR2): > 10 µM
- inhibition at 1 µM [1, 3]: 22%

- IC50 (Ba/F3-TEL-FGFR3 cells): 0.76 µM
- IC50 [2]: 0.3 µM
Compound: CC(C)(C(N)=O)n1cc(-c2ccn3c(-c4cccc(NC(=O)NCC(F)(F)F)c4)cnc3c2)cn1 [Example 72, 2-[4-(3-{3-[3-(2,2,2-Trifluoro-ethyl)-ureido]-phenyl}-imidazo[1,2-a]pyridin-7-yl)-pyrazol-1-yl]-isobutyramide]
- inhibition at 10 µM [1, 4]: 32%

Compound: O=C(NCC(F)(F)F)Nc1cc(OC2CCCC2)cc(-c2cnc3cc(-c4ncccn4)ccn23)c1 [Compound 284]
- inhibition at 10 µM (VEGFR2; 1 h, at 10 μM, read-out: VEGFR2 % I): 62%
- inhibition at 3 µM [1, 3]: 14%
- IC50 ([1]; BaF3): 3.4 µM

Compound: Cc1ccc(NC(=O)NCC(F)(F)F)cc1-c1cnc2cc(C#Cc3cncn3C)ccn12 [Compound 326]
- inhibition at 0.978 µM (VEGFR2; 1 h, read-out: VEGFR2 % I): 45%
- inhibition at 10 µM [1, 3]: 18%

- inhibition at 0.3 µM (VEGFR2; 1 h, read-out: VEGFR2 % I): 43%
Compound: Nc1nc(-c2ccn3c(-c4cccc(NC(=O)NCC(F)(F)F)c4)cnc3c2)cc(C(F)(F)F)n1 [Example 245]
- IC50 ([1]; BaF3): 2.2 µM

Compound: Nc1cc(-c2ccn3c(-c4cccc(NC(=O)NCC(F)(F)F)c4)cnc3c2)nc(C(F)(F)F)n1 [Example 210]
- inhibition at 0.1 µM (VEGFR2; 1 h, at 0.1 μM, read-out: VEGFR2 % I): 42%
- inhibition at 3 µM [1, 3]: 13%

Compound: O=C(NCC(F)(F)F)Nc1cccc(-c2cnc3cc(-c4ccc(C(=O)N5CCOCC5)cn4)ccn23)c1 [Example 223]
- inhibition at 0.3 µM (VEGFR2; 1 h, read-out: VEGFR2 % I): 39%
- inhibition at 3 µM [1, 3]: 45%

Compound: Nc1nc(-c2ccn3c(-c4cc(NC(=O)NCC(F)(F)F)ccc4F)cnc3c2)ncc1F [Compound 311]
- inhibition at 0.978 µM (VEGFR2; 1 h, read-out: VEGFR2 % I): 20%
- inhibition at 3 µM [1, 3]: 2%
- inhibition at 10 µM [1, 3]: 32%

Compound: O=C(NCC(F)(F)F)Nc1cccc(-c2cnc3cc(-c4ncc(C(F)(F)F)c(NC5CCC5)n4)ccn23)c1 [Example 192]
- IC50 (VEGFR2): > 3 µM
- inhibition at 3 µM [1, 3]: 49%

Compound: CCNc1nc(-c2ccn3c(-c4cccc(NC(=O)NCC(F)(F)F)c4)cnc3c2)ncc1F [Example 177]
- IC50 (VEGFR2): > 1 µM
- inhibition at 10 µM [1, 3]: 16%
- inhibition at 10 µM ([2]; LP-1, read-out: LP-1 pERK ELISA, % inhibition): 47%

- inhibition at 0.3 µM (VEGFR2; 1 h, read-out: VEGFR2 % I): 45%
Compound: CCN(CC)CCc1nnc(-c2ccn3c(-c4cccc(NC(=O)NCC(F)(F)F)c4)cnc3c2)s1 [Example 246]
- IC50 ([1]; BaF3): 1 µM

Compound: Cc1nc(-c2ccn3c(-c4cccc(NC(=O)NCC(F)(F)F)c4)cnc3c2)cc(N(C)C)n1 [Example 198]
- IC50 (Ba/F3-TEL-FGFR3 cells): 0.27 µM
- inhibition at 3 µM [1, 3]: 39%

Compound: CCCCOC(=O)Nc1nc(-c2ccn3c(-c4cccc(NC(=O)NCC(F)(F)F)c4)cnc3c2)ncc1F [Compound 314]
- inhibition at 3 µM (VEGFR2; 1 h, read-out: VEGFR2 % I): 62%
- inhibition at 10 µM [1, 3]: 21%

Compound: Nc1cc(Cl)cnc1-c1ccn2c(-c3cccc(NC(=O)NCC(F)(F)F)c3)cnc2c1 [Example 146, 1-{3-[7-(3-Amino-5-chloro-pyridin-2-yl)-imidazo[1,2-a]pyridin-3-yl]-phenyl}-3-(2,2,2-trifluoro-ethyl)-urea]
- inhibition at 1 µM (VEGFR2; 1 h, read-out: VEGFR2 % I): 51%
- inhibition at 10 µM [1, 3]: 1.2%

- IC50 (Ba/F3-TEL-FGFR3 cells): 0.797 µM
- IC50 [2]: 0.14 µM
Compound: O=C(NCC(F)(F)F)Nc1cccc(-c2cnc3cc(-c4cccnn4)ccn23)c1 [Example 9, 1-[3-(7-Pyridazin-3-ylimidazo[1,2-a]pyridin-3-yl)phenyl]-3-(2,2,2-trifluoroethyl)urea hydrochloride]
- IC50 ([1]; BaF3): 6.4 µM

Compound: COc1ccc(-c2ccn3c(-c4cccc(NC(=O)NCC(F)(F)F)c4)cnc3c2)nn1 [Example 51, 1-{3-[7-(6-Methoxy-pyridazin-3-yl)-1,7-imidazo[1,2-a]pyridin-3-yl]-phenyl}-3-(2,2,2-trifluoro-ethyl)-urea]
- inhibition at 10 µM [1, 3]: 10%
- IC50 [2]: 0.015 µM

- IC50 [2]: 0.09 µM
Compound: Cc1cncc(-c2ccn3c(-c4cccc(NC(=O)NCC(F)(F)F)c4)cnc3c2)n1 [Example 100, 1-{3-[7-(6-Methyl-pyrazin-2-yl)-imidazo[1,2-a]pyridin-3-yl]-phenyl}-3-(2,2,2-trifluoro-ethyl)-urea]
- IC50 ([1]; BaF3): 0.97 µM

- IC50 [2]: 0.055 µM
Compound: COc1cccc(-c2ccn3c(-c4cccc(NC(=O)NCC(F)(F)F)c4)cnc3c2)n1 [Example 101, 1-{3-[7-(6-Methoxy-pyridin-2-yl)-imidazo[1,2-a]pyridin-3-yl]-phenyl}-3-(2,2,2-trifluoro-ethyl)-urea]
- IC50 ([1]; BaF3): 0.16 µM

Compound: COc1cnc(-c2ccn3c(-c4cccc(NC(=O)NCC(F)(F)F)c4)cnc3c2)nc1 [Example 138, 1-{3-[7-(5-Methoxy-pyrimidin-2-yl)-imidazo[1,2-a]pyridin-3-yl]-phenyl}-3-(2,2 ,2-trifluoro-ethyl)-urea]
- inhibition at 3 µM [1, 3]: 36%
- IC50 [2]: 0.038 µM

- inhibition at 0.89 µM (VEGFR2; 1 h, at 0.89 μM, read-out: VEGFR2 % I): 36%
- inhibition at 3.11 µM (VEGFR2; 1 h, at 3.11 μM, read-out: VEGFR2 % I): 48%
Compound: CC(C)(C)OC(=O)NC1CN(c2ccnc(-c3ccn4c(-c5cccc(NC(=O)NCC(F)(F)F)c5)cnc4c3)n2)C1 [Example 193]
- IC50 ([1]; BaF3): 1.5 µM

Compound: COc1cnc(-c2ccn3c(-c4cccc(NC(=O)NCC(F)(F)F)c4)cnc3c2)nc1N [Example 173]
- inhibition at 3 µM [1, 3]: 29.5%
- inhibition at 10 µM [1, 3]: 22%
- IC50 [2]: 0.052 µM

Compound: O=C(NCC(F)(F)F)Nc1cccc(-c2cnc3cc(-c4ccncn4)ccn23)c1 [Example 34, 1-[3-(7-Pyrimidin-4-ylimidazo[1,2-a]pyridin-3-yl)phenyl]-3-(2,2,2-trifluoroethyl)urea hydrochloride]
- inhibition at 10 µM [1, 3]: 0%
- IC50 [2]: 0.013 µM

- IC50 [2]: 0.49 µM
Compound: Nc1cnc(-c2ccn3c(-c4cccc(NC(=O)NCC(F)(F)F)c4)cnc3c2)nc1 [Example 174]
- IC50 ([1]; BaF3): 1.5 µM
